Test results as given in publication PMC9403976, “Elucidating the path to Plasmodium prolyl-tRNA synthetase inhibitors that overcome halofuginone resistance” (Nature Communications, 2022).
Values joined by “and” are separate entries in the source; they are usually repeats but may differ in a detail not shown here. Equal values may be shown once.

Columns and labels:
[1] = tested on: HFGR-I P. falciparum (elevated proline homeostasis and PfcProRS^L482H); conditions: HFGR-I vs wild-type; cited from earlier work
P. falciparum Dd2-2D4 [2] = conditions: halofuginone pressure; cited from earlier work
HuH7 cells = experiment: HuH7 host hepatocyte viability (CellTiter-Fluor); assay type: cell-based, human; conditions: for HuH7 Growth, dose-response point: single replicates
Method: (§1) HuH7 cells (Sigma, Cat#: 01042712, Lot:18H009) were cultured in DMEM + L-Glutamine (Gibco) supplemented with 10% (v/v) heat-inactivated FBS (Sigma) and 1% (v/v) antibiotic/antimycotic (Sigma). Hepatocyte cultures were maintained in a standard tissue culture incubator at 37 °C. Anopheles mosquitoes infected with luciferase-expressing P. berghei ANKA sporozoites were obtained from the Sporocore at the University of Georgia. Liver stage P. berghei assays were completed as previously described. Briefly, 4000 HuH7 cells were seeded into 384-well plates (Corning) 1 day prior to infection. […] Relative fluorescence and luminescence signal intensities were normalized to the negative control, 1% DMSO. EC50 values were determined using PRISM (V. 8.4.3–9.1.0, GraphPad) through fitting data to a dose-response curve.

P. falciparum Dd2-2D4 [3] = experiment: NCP26 resistance selection under intermittent drug pressure; assay type: cell-based, Plasmodium falciparum; conditions: 10^9 parasites
Method: In short, parasites were treated with 4x EC50 NCP26 until no parasites were detected by giemsa staining microscopy. […] This cycle was repeated for ~50 generations (~100 days), corresponding to 5–6 cycles of drug pressure.

[4] = tested on: luciferase-expressing P. berghei ANKA sporozoites; experiment: P. berghei liver stage assay in HuH7 cells (luciferase, Bright-Glo); assay type: cell-based, Plasmodium berghei; conditions: for Parasite Load, dose-response point: single replicates
Method: as §1, with “infection. Compounds (0–50 µM) were added in triplicate to wells before infection with 4000 P. berghei sporozoites.” for “infection.”

P. falciparum Dd2-2D4 [5] = experiment: P. falciparum ABS short-term resistance susceptibility assay; assay type: cell-based, Plasmodium falciparum; conditions: wild-type parasites under intermittent drug pressure
Method: Following recrudescence, sensitivity to NCP26 and halofuginone was assayed using the ABS growth assay.

## O=C(CC1NCCCC1O)Cn1cnc2cc(Br)c(Cl)cc2c1=O (centres unmarked) [Halofuginone]
[1]
  fold less sensitive (HFGR-I parasites): ~ 400 fold
P. falciparum Dd2-2D4 [2]
  generations until resistant parasites arise: < 5 generations

## O=C(NC1Cc2ccccc2C1)c1nccnc1NC(=O)N1CCCCC1 [NCP26]
HuH7 cells; Homo sapiens, Huh-7, HuH7 cell viability, ~44 hpi
  EC50: > 2500 nM
HuH7 cells; Log[inhibitor] (M) -5.602
  HuH7 Growth, dose-response point: 6.24E+01 and 5.40E+01 and 5.94E+01
HuH7 cells; Log[inhibitor] (M) -6.000
  HuH7 Growth, dose-response point: 6.34E+01 and 6.90E+01 and 6.75E+01
HuH7 cells; Log[inhibitor] (M) -6.301
  HuH7 Growth, dose-response point: 6.99E+01 and 7.05E+01 and 6.37E+01
HuH7 cells; Log[inhibitor] (M) -6.602
  HuH7 Growth, dose-response point: 7.89E+01 and 8.13E+01 and 7.81E+01
HuH7 cells; Log[inhibitor] (M) -7.602
  HuH7 Growth, dose-response point: 9.65E+01 and 1.01E+02 and 8.52E+01
HuH7 cells; Log[inhibitor] (M) -8.602
  HuH7 Growth, dose-response point: 9.96E+01 and 1.08E+02 and 9.36E+01
HuH7 cells; Log[inhibitor] (M) -9.602
  HuH7 Growth, dose-response point: 1.01E+02 and 1.06E+02 and 1.03E+02
HuH7 cells; Log[inhibitor] (M) -9.903
  HuH7 Growth, dose-response point: 1.05E+02 and 1.11E+02 and 1.08E+02
P. falciparum Dd2-2D4 [3]; >50 generations (100 days), 2 out of 3 selections
  resistance to NCP26 after selection: 20-to-80 fold
P. falciparum Dd2-2D4 [3]; intermittent drug pressure
  generations until resistance arises: > 50 generations
[4]; Log[inhibitor] (M) -5.602
  Parasite Load, dose-response point: 4.50E-01 and 4.96E-01 and 3.82E-01
[4]; Log[inhibitor] (M) -6.000
  Parasite Load, dose-response point: 6.73E-01 and 1.77E+00 and 8.83E-01
[4]; Log[inhibitor] (M) -6.301
  Parasite Load, dose-response point: 2.58E+00 and 1.62E+00 and 1.38E+00
[4]; Log[inhibitor] (M) -6.602
  Parasite Load, dose-response point: 2.09E+01 and 4.21E+01 and 3.50E+01
[4]; Log[inhibitor] (M) -7.602
  Parasite Load, dose-response point: 1.02E+02 and 9.26E+01 and 8.31E+01
[4]; Log[inhibitor] (M) -8.602
  Parasite Load, dose-response point: 9.21E+01 and 5.24E+01 and 5.53E+01
[4]; Log[inhibitor] (M) -9.602
  Parasite Load, dose-response point: 7.79E+01 and 6.82E+01 and 1.12E+02
[4]; Log[inhibitor] (M) -9.903
  Parasite Load, dose-response point: 5.64E+01 and 9.94E+01 and 8.54E+01
[4]; Plasmodium berghei, Huh-7, HuH7 cells infected with sporozoites, ~44 hpi
  EC50: 232 nM
P. falciparum Dd2-2D4 [5]
  induction of rapid resistance: did not induce rapid resistance
